This passage reports EC50 results from patent US20220363662A1, “COMPOUNDS AS LXR AGONISTS” (Integral Biosciences Privated Limited, priority 2021, published 2022).

pEC50: −log10 of the molar value. Bounds are passed on as bounds.

The target of the assay is T1, LXR beta (Homo sapiens, UniProt P55055).
T1 construct: 5 μL of 4×LXR beta-LBD was added to each well (final concentration 5 nM); purchased Thermofisher PV4658
T1 sequence (P55055 222-460 limits assumed): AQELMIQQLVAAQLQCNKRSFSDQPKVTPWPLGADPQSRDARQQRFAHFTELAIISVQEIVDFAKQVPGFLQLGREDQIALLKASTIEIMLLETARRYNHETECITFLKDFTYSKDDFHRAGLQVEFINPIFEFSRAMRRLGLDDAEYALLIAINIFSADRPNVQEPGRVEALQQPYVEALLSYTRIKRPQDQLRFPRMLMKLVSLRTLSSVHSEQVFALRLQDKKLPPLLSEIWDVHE
Briefly: LXR beta agonist assay (Lanthascreen TR-FRET). The following applies: LXR beta-LBD 5 nM, read-out: LXR-β EC50. The format is biochemical. How it is done:
EC50 values of compounds against LXR beta were determined at Integral BioSciences (India) using Lanthascreen TR-FRET (Thermofisher, Cat #PV4658). Assay was performed in a 20 μL final volume in a Black 384-well plate (Corning, Cat #4511). Dose response curve for the compounds were prepared in duplicates with starting concentration at 30 μM and a three-fold titration was performed. The reaction buffer consisted of TR-FRET Coregulator Buffer G. To the compound dilution, 5 μL of 4×LXR beta-LBD was added to each well (final concentration 5 nM). An equal volume (5 μL) containing 4×Fl-D22/Tb-anti GST antibody (final concentration 100 nM/10 nM) was added to initiate the enzyme reaction and the reaction was incubated for 60 min at 22° C. after which the plates were read using BioTek Plate reader for TR-FRET every hour up to 4 hours.
Analysis was done using the standard curve by non-linear regression, variable slope inhibitor curve fits (Graph-Pad Prism) and EC50's of compounds were determined wherever possible.
As to `COc1cccc(C2(C(=O)N3CCC(N4CC(Nc5ccc(C(=O)N(C)C)c(Cl)c5)C4)CC3)CCCC2)c1` [Compound 1.67, 2-chloro-4-(1-(1-(1-(3-methoxyphenyl)cyclopentanecarbonyl)piperidin-4-yl)azetidin-3-ylamino)-N,N-dimethylbenzamide], the negative logarithm of the EC50 (pEC50) was 6.00.

Consider `CN(C)C(=O)c1ccc(NC2CN(C3CCN(C(=O)C4CCC(F)(F)CC4)CC3)C2)cc1Cl` [Compound 1.63, 2-chloro-4-(1-(1-(4,4-dfluorocyclohexanecarbonyl)piperidin-4-yl)azetidin-3-ylamino)-N,N-dimethylbenzamide], for which the pEC50 is under 4.52.

Take `CN(C)C(=O)c1ccc(NC2CN(C3CCN(C(=O)C(O)(C4CCCCC4)C(F)(F)F)CC3)C2)cc1Cl` (stereo not drawn) [Compound 1.101, 2-chloro-4-((1-(1-(2-cyclohexyl-3,3,3-trifluoro-2-hydroxypropanoyl)piperidin-4-yl)azetidin-3-yl)amino)-N,N-dimethylbenzamide]: the negative-log EC50 (pEC50) was 5.31.

With `O=C(c1ccc(NC2CN(C3CCN(C(=O)C(O)(c4cccc(Cl)c4)C(F)(F)F)CC3)C2)cc1Cl)N1CC(F)(F)C1` (stereo not drawn) [Compound 1.131, 1-(4-(3-((3-chloro-4-(3,3-difluoroazetidine-1-carbonyl)phenyl)amino)azetidin-1-yl)piperidin-1-yl)-2-(3-chlorophenyl)-3,3,3-trifluoro-2-hydroxypropan-1-one], the negative logarithm of the EC50 (pEC50) is 5.75.

Take `CC1CN(S(=O)(=O)c2ccccc2Cl)CCN1c1nnc(-c2ccc(C(=O)N(C)C)c(F)c2)s1` (stereo not drawn) [Compound 1.82, 4-(5-(4-(2-chlorophenylsulfonyl)-2-methylpiperazin-1-yl)-1,3,4-thiadiazol-2-yl)-2-fluoro-N,N-dimethylbenzamide]: the pEC50 was 5.04.

In the case of `COCCCN(C)C(=O)c1ccc(NC2CN(C3CCN(C(=O)[C@](O)(c4ccccc4)C(F)(F)F)CC3)C2)cc1Cl` [Compound 1.124, (R)-2-chloro-N-(3-methoxypropyl)-N-methyl-4-(1-(1-(3,3,3-trifluoro-2-hydroxy-2-phenylpropanoyl)piperidin-4-yl)azetidin-3-ylamino)benzamide], the negative-log EC50 (pEC50) was 5.80.

Regarding `CN(C)C(=O)c1c(Cl)cc(NC2CN(C3CCN(C(=O)[C@](O)(c4ccccc4)C(F)(F)F)CC3)C2)cc1Cl` [Compound 1.122, (R)-2,6-dichloro-N,N-dimethyl-4-(1-(1-(3,3,3-trifluoro-2-hydroxy-2-phenylpropanoyl)piperidin-4-yl)azetidin-3-ylamino)benzamide], the pEC50 was 5.37.

`CN(C)C(=O)c1ccc(NC2CN(C3CCN(C(=O)[C@](O)(c4ccccc4)C(F)(F)F)CC3)C2)cc1F` (single isomer, unassigned) [Compound 1.87]: the pEC50 is under 4.52.

Regarding `CN(C)C(=O)c1ccc(NC2CN(C3CCN(S(=O)(=O)c4ccccc4C#N)CC3)C2)cc1Cl` [Compound 1.13, 2-chloro-4-(1-(1-(2-cyanophenylsulfonyl)piperidin-4-yl)azetidin-3-ylamino)-N,N-dimethylbenzamide], the negative-log EC50 (pEC50) is 5.35.

For the compound `CC(=O)N1CCN(C(=O)c2ccc(NC3CN(C4CCN(C(=O)[C@@](O)(c5ccccc5)C(F)(F)F)CC4)C3)cc2Cl)CC1` (single isomer, unassigned) [Compound 1.105], the pEC50 is 5.65.

Regarding `CN(C)C(=O)c1ccc(-c2nnc(C3=CCN(S(=O)(=O)c4cc(Cl)ccc4Cl)CC3)s2)cc1Cl` [Compound 1.61, 2-chloro-4-(5-(1-(2,5-dichlorophenylsulfonyl)-1,2,3,6-tetrahydropyridin-4-yl)-1,3,4-thiadiazol-2-yl)-N,N-dimethylbenzamide], the pEC50 is under 5.00.

Turning to `O=C(NCC(F)F)c1ccc(NC2CN(C3CCN(C(=O)C(O)(c4ccccc4)C(F)(F)F)CC3)C2)cc1Cl` (stereo not drawn) [Compound 1.98, 2-chloro-N-(2,2-difluoroethyl)-4-((1-(1-(3,3,3-trifluoro-2-hydroxy-2-phenylpropanoyl)piperidin-4-yl)azetidin-3-yl)amino)benzamide], the pEC50 was 5.01.

Turning to `CN(C)C(=O)c1ccc(-c2nnc(C3=CCN(C(=O)C45CC6CC(CC(C6)C4)C5)CC3)s2)cc1Cl` [Compound 1.65, 4-{5-[1-(adamantane-1-carbonyl)-1,2,3,6-tetrahydropyridin-4-yl]-1,3,4-thiadiazol-2-yl}-2-chloro-N,N-dimethylbenzamide], the negative-log EC50 (pEC50) is 5.40.

Take `CC1CN(C(=O)c2ccc(NC3CN(C4CCN(C(=O)C(O)(c5ccccc5)C(F)(F)F)CC4)C3)cc2Cl)C1` (stereo not drawn) [Compound 1.94, 1-(4-(3-((3-chloro-4-(3-methylazetidine-1-carbonyl)phenyl)amino)azetidin-1-yl)piperidin-1-yl)-3,3,3-trifluoro-2-hydroxy-2-phenylpropan-1-one]: the negative logarithm of the EC50 (pEC50) is 5.17.

Regarding `N#Cc1ccccc1S(=O)(=O)N1CCC(C2CCN(c3cc(Cl)c4c(=O)[nH]ccc4c3)CC2)CC1` [Compound 1.15, 2-(1′-(8-chloro-1-oxo-1,2-dihydroisoquinolin-6-yl)-4,4′-bipiperidin-1-ylsulfonyl)benzonitrile], the negative-log EC50 (pEC50) was 5.56.

For the compound `O=C(c1ccc(NC2CN(C3CCN(C(=O)[C@](O)(c4ccccc4)C(F)(F)F)CC3)C2)cc1Cl)N1CCCCC1` (single isomer, unassigned) [Compound 1.109], the pEC50 was 5.52.

With `O=C(NCC(F)F)c1ccc(NC2CN(C3CCN(C(=O)C(O)(c4cccc(Cl)c4)C(F)(F)F)CC3)C2)cc1Cl` (stereo not drawn) [Compound 1.130, 2-chloro-4-((1-(1-(2-(3-chlorophenyl)-3,3,3-trifluoro-2-hydroxypropanoyl)piperidin-4-yl)azetidin-3-yl)amino)-N-(2,2-difluoroethyl)benzamide], the pEC50 was 5.80.

Consider `CN(C)C(=O)c1ccc(-c2nnc(C3=CCN(C(=O)C(O)(c4ccccc4)C(F)(F)F)CC3)s2)cc1Cl` (stereo not drawn) [Compound 1.68, 2-chloro-N,N-dimethyl-4-(5-(1-(3,3,3-trifluoro-2-hydroxy-2-phenylpropanoyl)-1,2,3,6-tetrahydropyridin-4-yl)-1,3,4-thiadiazol-2-yl)benzamide], for which the pEC50 was 5.34.

For `CN(C)C(=O)c1ccc(NC2CN(C3CCN(C(=O)C45CC6CC(CC(C6)C4)C5)CC3)C2)cc1Cl` [Compound 1.66, 4-({1-[1-(adamantane-1-carbonyl)piperidin-4-yl]azetidin-3-yl}amino)-2-chloro-N,N-dimethylbenzamide], the negative logarithm of the EC50 (pEC50) is under 4.69.

For the compound `CN(C)C(=O)c1ccc(NC2CN(C3CCN(C(=O)C(O)(c4ccccc4)C(F)(F)F)CC3)C2)cc1F` (stereo not drawn) [Compound 1.85, 2-fluoro-N,N-dimethyl-4-((1-(1-(3,3,3-trifluoro-2-hydroxy-2-phenylpropanoyl)piperidin-4-yl)azetidin-3-yl)amino)benzamide], the pEC50 is under 4.52.

For the compound `CN(C)C(=O)c1ccc(NC2CN(C3CCN(C(=O)C4(c5ccc(Cl)cc5)CCC4)CC3)C2)cc1Cl` [Compound 1.33, 2-chloro-4-(1-(1-(1-(4-chlorophenyl)cyclobutanecarbonyl)piperidin-4-yl)azetidin-3-ylamino)-N,N-dimethylbenzamide], the pEC50 is 5.37.

For the compound `CN(C)C(=O)c1cc([N+](=O)[O-])c(NC2CN(C3CCN(C(=O)[C@](O)(c4ccccc4)C(F)(F)F)CC3)C2)cc1Cl` [Compound 1.129, (R)-2-chloro-N,N-dimethyl-5-nitro-4-(1-(1-(3,3,3-trifluoro-2-hydroxy-2-phenylpropanoyl)piperidin-4-yl)azetidin-3-ylamino)benzamide], the negative-log EC50 (pEC50) is 5.46.

Regarding `O=C(c1ccc(NC2CN(C3CCN(C(=O)[C@](O)(c4ccccc4)C(F)(F)F)CC3)C2)cc1Cl)N1CCCCC1` (single isomer, unassigned) [Compound 1.108], the pEC50 is 5.80.

For `CCN(CC)C(=O)c1ccc(NC2CN(C3CCN(C(=O)[C@](O)(c4ccccc4)C(F)(F)F)CC3)C2)cc1Cl` (single isomer, unassigned) [Compound 1.97], the pEC50 was 5.93.

As for `O=C(c1ccc(NC2CN(C3CCN(C(=O)C(O)(c4cccc(Cl)c4)C(F)(F)F)CC3)C2)cc1Cl)N1CCC(F)(F)C1` (stereo not drawn) [Compound 1.132, 1-(4-(3-((3-chloro-4-(3,3-difluoropyrrolidine-1-carbonyl)phenyl)amino)azetidin-1-yl)piperidin-1-yl)-2-(3-chlorophenyl)-3,3,3-trifluoro-2-hydroxypropan-1-one], the negative-log EC50 (pEC50) was 6.21.

Turning to `O=C(c1ccc(NC2CN(C3CCN(C(=O)C(O)(c4ccccc4)C(F)(F)F)CC3)C2)cc1Cl)N1CC(F)(F)C1` (stereo not drawn) [Compound 1.110, 1-(4-(3-(3-chloro-4-(3,3-difluoroazetidine-1-carbonyl)phenylamino)azetidin-1-yl)piperidin-1-yl)-3,3,3-trifluoro-2-hydroxy-2-phenylpropan-1-one], the pEC50 is 5.24.

Regarding `CN(C)C(=O)c1ccc(NC2CN(C3CCN(S(=O)(=O)c4ccccc4Cl)CC3)C2)cc1Cl` [Compound 1.2, 2-chloro-4-(1-(1-(2-chlorophenylsulfonyl)piperidin-4-yl)azetidin-3-ylamino)-N,N-dimethylbenzamide], the pEC50 was 5.48.
